Assay results: the supplement of paper PMC10307832

Assays:
Experiment in all cases: relative viability (nuclei count vs DMSO), 5 days (fraction); higher = more cells survive
EKVX = test system: EKVX
Procedure, shortened: (§1)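 Relative viability equals treated-well nuclei counts divided by vehicle-well nuclei counts. Counts came from 4× images of lung cancer cell lines grown in 1536-well plates for 5 days after pin-tool dosing on the day after seeding. Dosing used one drug alone or a fixed anchor-drug dose plus five library-drug doses (not always all listed) in √10 steps, and values are medians of duplicate plates.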

NCI-H1395 = test system: NCI-H1395
Procedure, shortened: as §1

NCI-H2023 = test system: NCI-H2023
Procedure, shortened: as §1

NCI-H2342 = test system: NCI-H2342
Procedure, shortened: as §1

NCI-H358 = test system: NCI-H358
Procedure, shortened: as §1

NCI-H460 = test system: NCI-H460
Procedure, shortened: as §1

NCI-H1975 = test system: NCI-H1975
Procedure, shortened: as §1

NCI-H1563 = test system: NCI-H1563
Procedure, shortened: as §1

CAL-12T = test system: CAL-12T
Procedure, shortened: as §1

LCLC-103H = test system: LCLC-103H
Procedure, shortened: as §1

NCI-H1755 = test system: NCI-H1755
Procedure, shortened: as §1

HCC-366 = test system: HCC-366
Procedure, shortened: as §1

SMILES: COc1cc(N2CCC(C(N)=O)CC2)ccc1Nc1nc(N)c(Cl)c(Nc2ccccc2S(=O)(=O)C(C)C)n1 [HG-5-88-01] + COc1cc2c(Oc3ccc(NC(=O)C4(C(=O)Nc5ccc(F)cc5)CC4)cc3F)ccnc2cc1OCCCN1CCOCC1 [Foretinib] (partner 0.25 µM)
- relative viability (EKVX; first compound 0.04 µM): 0.876
- relative viability (EKVX; first compound 0.1265 µM): 0.759
- relative viability (EKVX; first compound 0.4 µM): 0.305
- relative viability (EKVX; first compound 4 µM): 0.757
- relative viability (NCI-H1395; first compound 0.04 µM): 0.988
- relative viability (NCI-H1395; first compound 0.1265 µM): 1.06
- relative viability (NCI-H1395; first compound 0.4 µM): 1.04
- relative viability (NCI-H1395; first compound 1.265 µM): 0.859
- relative viability (NCI-H1395; first compound 4 µM): 0.999
- relative viability (NCI-H2023; first compound 0.04 µM): 1
- relative viability (NCI-H2023; first compound 0.1265 µM): 0.899
- relative viability (NCI-H2023; first compound 0.4 µM): 0.628
- relative viability (NCI-H2023; first compound 1.265 µM): 0.399
- relative viability (NCI-H2023; first compound 4 µM): 0.507
- relative viability (NCI-H2342; first compound 0.04 µM): 1.19
- relative viability (NCI-H2342; first compound 0.1265 µM): 1.06
- relative viability (NCI-H2342; first compound 0.4 µM): 1.13
- relative viability (NCI-H2342; first compound 1.265 µM): 0.697
- relative viability (NCI-H2342; first compound 4 µM): 1.04
- relative viability (NCI-H358; first compound 0.04 µM): 0.676
- relative viability (NCI-H358; first compound 0.1265 µM): 0.605
- relative viability (NCI-H358; first compound 0.4 µM): 0.479
- relative viability (NCI-H358; first compound 1.265 µM): 0.224
- relative viability (NCI-H358; first compound 4 µM): 0.23
- relative viability (NCI-H460; first compound 0.04 µM): 1.03
- relative viability (NCI-H460; first compound 0.1265 µM): 1.01
- relative viability (NCI-H460; first compound 0.4 µM): 0.929
- relative viability (NCI-H460; first compound 1.265 µM): 0.959
- relative viability (NCI-H460; first compound 4 µM): 0.926
- relative viability (NCI-H1975; first compound 0.04 µM): 1.08
- relative viability (NCI-H1975; first compound 0.1265 µM): 0.923
- relative viability (NCI-H1975; first compound 0.4 µM): 0.814
- relative viability (NCI-H1975; first compound 1.265 µM): 0.916
- relative viability (NCI-H1975; first compound 4 µM): 0.397
- relative viability (NCI-H1563; first compound 0.04 µM): 1
- relative viability (NCI-H1563; first compound 0.1265 µM): 1.01
- relative viability (NCI-H1563; first compound 0.4 µM): 0.963
- relative viability (NCI-H1563; first compound 1.265 µM): 0.866
- relative viability (NCI-H1563; first compound 4 µM): 0.833
- relative viability (CAL-12T; first compound 0.04 µM): 1.06
- relative viability (CAL-12T; first compound 0.1265 µM): 1.19
- relative viability (CAL-12T; first compound 0.4 µM): 1.05
- relative viability (CAL-12T; first compound 1.265 µM): 0.963
- relative viability (CAL-12T; first compound 4 µM): 0.945
- relative viability (LCLC-103H; first compound 0.04 µM): 0.767
- relative viability (LCLC-103H; first compound 0.1265 µM): 0.745
- relative viability (LCLC-103H; first compound 0.4 µM): 0.745
- relative viability (LCLC-103H; first compound 1.265 µM): 0.757
- relative viability (LCLC-103H; first compound 4 µM): 0.75
- relative viability (NCI-H1755; first compound 0.04 µM): 0.876
- relative viability (NCI-H1755; first compound 0.1265 µM): 0.895
- relative viability (NCI-H1755; first compound 0.4 µM): 0.863
- relative viability (NCI-H1755; first compound 1.265 µM): 0.858
- relative viability (NCI-H1755; first compound 4 µM): 0.873
- relative viability (HCC-366; first compound 0.04 µM): 0.955
- relative viability (HCC-366; first compound 0.1265 µM): 0.915
- relative viability (HCC-366; first compound 0.4 µM): 0.909
